Laboratory results taken from article PMC10256776, “Cryo-EM structures of ClC-2 chloride channel reveal the blocking mechanism of its specific inhibitor AK-42” (Nature Communications, 2023).
Changes are numbered by the printed parent chain.

Columns and labels:
Test in all cases: whole-cell patch clamp, […] AK-42
Type in all cases: cell-based
[1] = target: T1, ClC-2 (Homo sapiens, UniProt P51788, K394A)
T1 construct: gene CLCN2; human ClC-2 mutant expressed in CHO-K1 cells
T1 sequence (P51788 2-898 K394A): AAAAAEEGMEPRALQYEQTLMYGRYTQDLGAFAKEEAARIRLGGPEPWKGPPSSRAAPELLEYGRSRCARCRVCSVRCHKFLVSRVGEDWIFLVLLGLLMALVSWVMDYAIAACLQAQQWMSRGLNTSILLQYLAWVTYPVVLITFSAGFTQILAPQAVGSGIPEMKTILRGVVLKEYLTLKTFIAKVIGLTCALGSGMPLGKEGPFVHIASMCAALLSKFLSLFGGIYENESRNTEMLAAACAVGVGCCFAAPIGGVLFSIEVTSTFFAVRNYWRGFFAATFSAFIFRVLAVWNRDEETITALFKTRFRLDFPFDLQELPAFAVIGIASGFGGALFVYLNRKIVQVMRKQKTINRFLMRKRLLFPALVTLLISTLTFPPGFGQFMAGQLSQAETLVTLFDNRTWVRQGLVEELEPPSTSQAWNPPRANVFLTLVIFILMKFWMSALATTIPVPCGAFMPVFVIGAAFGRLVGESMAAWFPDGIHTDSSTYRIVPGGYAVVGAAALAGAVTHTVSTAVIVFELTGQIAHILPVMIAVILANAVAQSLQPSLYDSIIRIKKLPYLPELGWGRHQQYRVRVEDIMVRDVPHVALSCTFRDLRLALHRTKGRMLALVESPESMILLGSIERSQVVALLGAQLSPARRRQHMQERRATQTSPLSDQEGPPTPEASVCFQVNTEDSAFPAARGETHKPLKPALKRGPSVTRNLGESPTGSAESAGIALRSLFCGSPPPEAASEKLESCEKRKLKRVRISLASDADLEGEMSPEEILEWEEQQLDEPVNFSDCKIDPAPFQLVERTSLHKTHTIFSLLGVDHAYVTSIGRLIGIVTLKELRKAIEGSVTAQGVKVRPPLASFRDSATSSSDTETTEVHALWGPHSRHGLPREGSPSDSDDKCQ

[2] = target: T2, ClC-2 (Homo sapiens, UniProt P51788, K394R)
T2 construct: gene CLCN2; human ClC-2 mutant expressed in CHO-K1 cells
T2 sequence (P51788 2-898 K394R): T1 sequence (P51788 2-898 K394A) with A393R

[3] = target: T3, ClC-2 (Homo sapiens, UniProt P51788, F459A)
T3 construct: gene CLCN2; human ClC-2 mutant expressed in CHO-K1 cells
T3 sequence (P51788 2-898 F459A): T1 sequence (P51788 2-898 K394A) with A393K, F458A

O=C(O)c1cccnc1Nc1c(Cl)ccc(OCc2ccccc2)c1Cl [AK-42, 2-((3-(benzyloxy)−2,6-dichlorophenyl)amino)nicotinic acid]
whole-cell patch clamp, 30 nM AK-42 [1]: K394R and K394A showed a slightly lower but not significant percent inhibition of AK-42 than wild-type ClC-2 | whole-cell patch clamp, 30 nM AK-42 [2]: K394R and K394A showed a slightly lower but not significant percent inhibition of AK-42 than wild-type ClC-2 | whole-cell patch clamp, 30 nM AK-42 [3]: the mutation F459A in the hydrophobic pocket shows a higher percent inhibition value than wild-type ClC-2
